Source: patent US9550782B2, “Compounds and methods for treating diabetes” (Medivation Technologies, Inc., priority 2011, dated 2017)
“And” between values parts separate entries of the source, which are not always exact repeats. Equal entries are not always repeated. Where two headings read alike, the source gives them in different places. Each block holds one compound with its values, some of them ahead of it.

How the values were obtained:
[1] = molecular target: T1, human recombinant adrenergic α2B receptor (Homo sapiens, UniProt P18089); assay: Radioligand binding, adrenergic α2B ([3H]Rauwolscine); settings: for Percentage inhibition of ligand binding, Adrenergic α2B (0.03 μM): repeat datapoints each shown
T1 construct: expressed in transfected cells; host or cells: CHO-K1
T1 sequence (P18089 1-450): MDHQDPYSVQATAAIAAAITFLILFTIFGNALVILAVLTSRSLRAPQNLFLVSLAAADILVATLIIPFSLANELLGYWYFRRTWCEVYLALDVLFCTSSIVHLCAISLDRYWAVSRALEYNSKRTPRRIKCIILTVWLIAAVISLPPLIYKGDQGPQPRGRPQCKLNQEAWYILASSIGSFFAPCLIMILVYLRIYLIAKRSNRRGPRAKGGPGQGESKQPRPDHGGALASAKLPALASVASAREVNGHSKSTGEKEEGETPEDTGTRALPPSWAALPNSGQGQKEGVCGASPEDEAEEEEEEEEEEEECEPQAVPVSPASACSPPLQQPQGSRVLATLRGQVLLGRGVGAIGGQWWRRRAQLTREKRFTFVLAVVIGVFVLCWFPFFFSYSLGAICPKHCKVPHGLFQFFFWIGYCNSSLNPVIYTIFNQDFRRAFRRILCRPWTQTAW
Procedure, shortened: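 Values are percent inhibition of specific radioligand binding. The receptor, expressed in CHO-K1 cells, was exposed to 2.5 nM [3H]Rauwolscine at 25° C for 60 min, with 10 μM Prazosin marking non-specific binding.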

[2] = molecular target: T2, human recombinant adrenergic α2A receptor (Homo sapiens, UniProt P08913); assay: Radioligand binding, adrenergic α2A ([3H]MK-912); settings: [3H]MK-912
T2 construct: expressed in transfected cells; host or cells: insect Sf9 cells
T2 sequence (P08913 1-465): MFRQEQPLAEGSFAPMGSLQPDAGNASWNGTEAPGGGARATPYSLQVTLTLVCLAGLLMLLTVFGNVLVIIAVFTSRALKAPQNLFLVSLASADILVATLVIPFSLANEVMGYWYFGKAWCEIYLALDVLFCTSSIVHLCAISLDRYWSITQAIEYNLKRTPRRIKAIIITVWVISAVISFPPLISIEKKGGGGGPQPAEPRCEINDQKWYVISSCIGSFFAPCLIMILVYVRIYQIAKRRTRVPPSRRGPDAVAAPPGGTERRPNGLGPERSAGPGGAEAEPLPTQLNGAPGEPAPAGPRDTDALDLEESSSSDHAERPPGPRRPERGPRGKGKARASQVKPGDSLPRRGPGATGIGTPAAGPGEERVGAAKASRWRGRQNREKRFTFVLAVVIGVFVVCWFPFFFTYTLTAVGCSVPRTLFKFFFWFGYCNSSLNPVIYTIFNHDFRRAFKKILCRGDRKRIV
Procedure, shortened: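 In 50 mM Tris-HCl (pH 7.4) containing 12.5 mM MgCl2 and 2 mM EDTA, Sf9-expressed receptor was exposed to test compound plus 1 nM [3H]MK-912 at 25 °C for 60 min. Specific binding, corrected using 10 μM WB-4101, was quantified by filtration and counting and expressed as percent inhibition.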

[3] = molecular target: T3, rat adrenergic α1B receptor (Rattus norvegicus, UniProt P15823); assay: Radioligand binding, adrenergic α1B ([3H]Prazosin); design: species or system Wistar Rat; settings: for Percentage inhibition of ligand binding, Adrenergic α1B (0.1 μM): repeat datapoints each shown
T3 construct: rat adrenergic α1B receptor obtained from Wistar Rat liver; from tissue; host or cells: Wistar rat liver
T3 sequence (P15823 1-515): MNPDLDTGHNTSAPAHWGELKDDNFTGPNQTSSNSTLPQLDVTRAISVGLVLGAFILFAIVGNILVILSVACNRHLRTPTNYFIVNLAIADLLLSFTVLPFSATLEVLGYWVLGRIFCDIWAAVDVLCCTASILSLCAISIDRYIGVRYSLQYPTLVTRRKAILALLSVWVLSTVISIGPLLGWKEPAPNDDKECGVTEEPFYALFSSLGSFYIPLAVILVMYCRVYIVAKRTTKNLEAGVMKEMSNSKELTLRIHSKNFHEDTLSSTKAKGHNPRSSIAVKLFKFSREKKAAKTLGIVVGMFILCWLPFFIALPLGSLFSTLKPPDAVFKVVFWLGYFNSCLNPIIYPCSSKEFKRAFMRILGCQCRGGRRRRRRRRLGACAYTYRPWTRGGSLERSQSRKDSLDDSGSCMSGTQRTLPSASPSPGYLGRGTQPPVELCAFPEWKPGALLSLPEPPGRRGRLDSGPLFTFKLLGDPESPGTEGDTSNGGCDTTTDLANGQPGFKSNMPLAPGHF
Procedure, shortened: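 Filter binding with Wistar rat liver α1B preparation: test compound plus 0.25 nM [3H]prazosin, 1 h at 25° C in modified Tris-HCl buffer pH 7.4.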

[4] = compound at 0.1 μM, repeat datapoints each shown, 0.1 µM

- Percentage inhibition of ligand binding, Adrenergic α2B ([1]; 0.03 μM compound, 0.03 µM): 43%
- Percentage inhibition of ligand binding, Adrenergic α2A ([2]; 0.1 μM compound, 0.1 µM): −12%
- Percentage inhibition of ligand binding, Adrenergic α1B ([3]; 0.1 μM compound, 0.1 µM): 35%
SMILES: Cc1cnc2c(c1)c1c(n2CC(N)c2ccc(C#N)cc2)CCNC1 (single isomer, unassigned) [160a]

- Percentage inhibition of ligand binding, Adrenergic α2B ([1]; 0.03 μM compound, 0.03 µM): 41%
- Percentage inhibition of ligand binding, Adrenergic α2A ([2]; 0.1 μM compound, 0.1 µM): 5%
- Percentage inhibition of ligand binding, Adrenergic α1B ([3]; 0.1 μM compound, 0.1 µM): 65%
SMILES: Cc1cnc2c(c1)c1c(n2CC(N)c2ccc(C#N)cc2)CCNC1 (single isomer, unassigned) [160b]

- Percentage inhibition of ligand binding, Adrenergic α2B ([1]; compound at 0.03 μM, 0.03 µM): 49%
- Percentage inhibition of ligand binding, Adrenergic α2A ([2]; compound at 0.1 μM, 0.1 µM): 24%
- Percentage inhibition of ligand binding, Adrenergic α1B ([3]; compound at 0.1 μM, 0.1 µM): 12%
SMILES: Cc1cnc2c(c1)c1c(n2CC(C)(O)c2cccnc2)CCN(C)C1 (single isomer, unassigned) [II-99a]

- Percentage inhibition of ligand binding, Adrenergic α2B ([1]; compound at 0.03 μM, 0.03 µM): 7%
- Percentage inhibition of ligand binding, Adrenergic α2A ([2]; compound at 0.1 μM, 0.1 µM): 16%
- Percentage inhibition of ligand binding, Adrenergic α1B ([3]; compound at 0.1 μM, 0.1 µM): 5%
SMILES: Cc1cnc2c(c1)c1c(n2CC(C)(O)c2cccnc2)CCN(C)C1 (single isomer, unassigned) [II-99b]

- Percentage inhibition of ligand binding, Adrenergic α2B ([1]; compound at 0.03 μM, 0.03 µM): 1%
- Percentage inhibition of ligand binding, Adrenergic α2A ([2]; compound at 0.1 μM, 0.1 µM): 4%
- Percentage inhibition of ligand binding, Adrenergic α1B ([3]; compound at 0.1 μM): 24%
SMILES: Cc1cnc2c(c1)c1c(n2CC(O)c2ccc(C)nc2)CCN(C)C1 (single isomer, unassigned) [II-100b]

- Percentage inhibition of ligand binding, Adrenergic α2B ([1]; 0.03 μM compound, 0.03 µM): 54%
- Percentage inhibition of ligand binding, Adrenergic α2A ([2]; 0.1 μM compound, 0.1 µM): 22%
- Percentage inhibition of ligand binding, Adrenergic α1B ([3]; 0.1 μM compound, 0.1 µM): 45%
SMILES: Cc1ccc2c(c1)c1c(n2CC(C)(O)c2cccnc2)CNCC1 (centres unmarked) [128b]

- Percentage inhibition of ligand binding, Adrenergic α2B ([1]; 0.03 μM compound, 0.03 µM): 52%
- Percentage inhibition of ligand binding, Adrenergic α2A ([2]; 0.1 μM compound, 0.1 µM): 13%
- Percentage inhibition of ligand binding, Adrenergic α1B ([3]; 0.1 μM compound, 0.1 µM): 57%
SMILES: Cc1ccc2c(c1)c1c(n2CC(O)c2ccncc2C)CCN(C)C1 (centres unmarked) [133a]

- Percentage inhibition of ligand binding, Adrenergic α2B (0.03 μM) ([1]; compound at 0.03 μM): 36%
- Percentage inhibition of ligand binding, Adrenergic α2A (0.1 μM) ([2]; compound at 0.1 μM, repeat datapoints each shown): 8%
- Percentage inhibition of ligand binding, Adrenergic α1B (0.1 μM) ([3]; compound at 0.1 μM): 31%
SMILES: Cc1ccc2c(c1)c1c(n2CC(O)c2cn[nH]c2)CCN(C)C1 (centres unmarked) [II-106b]

- inhibition at 0.03 µM ([1]; read-out: Percentage inhibition of ligand binding, Adrenergic α2B (0.03 μM), compound at 0.03 μM, repeat datapoints each shown): 43%
- inhibition at 0.1 µM ([2]; read-out: Percentage inhibition of ligand binding, Adrenergic α2A (0.1 μM), compound at 0.1 μM, repeat datapoints each shown): 3%
- inhibition at 0.1 µM ([3]; read-out: Percentage inhibition of ligand binding, Adrenergic α1B (0.1 μM), compound at 0.1 μM, repeat datapoints each shown): 4%
SMILES: Cc1ccc2c(c1)c1c(n2CC(O)c2ccc(C#N)cc2)CCNC1 (centres unmarked) [II-116]

Second part, the compound before the results:

SMILES: Cc1ccc2c(c1)c1c(n2CC(C)(O)c2ccc(C)nc2)CN(C)CC1 (single isomer, unassigned) [196a]
- Percentage inhibition of ligand binding, Adrenergic α2B ([1]; 0.03 μM compound, 0.03 µM): 93% and 103%
- Percentage inhibition of ligand binding, Adrenergic α2A ([2]; 0.03 μM compound): 37%
- Percentage inhibition of ligand binding, Adrenergic α2A ([2]; 0.1 μM compound, 0.1 µM): 58% and 71%
- Percentage inhibition of ligand binding, Adrenergic α1B ([3]; 0.03 μM compound): 30%
- Percentage inhibition of ligand binding, Adrenergic α1B ([3]; 0.1 μM compound, 0.1 µM): 54.6%

SMILES: OCCN1CCc2c(c3cc(Cl)ccc3n2CC(O)c2ccncc2)C1 (single isomer, unassigned) [II-93a]
- Percentage inhibition of ligand binding, Adrenergic α2B ([1]; compound at 0.03 μM): 24%
- Percentage inhibition of ligand binding, Adrenergic α2A ([2]; compound at 0.1 μM, 0.1 µM): 7%
- Percentage inhibition of ligand binding, Adrenergic α1B ([3]; compound at 0.1 μM): 6%

SMILES: OCCN1CCc2c(c3cc(Cl)ccc3n2CC(O)c2cccnc2)C1 (single isomer, unassigned) [II-94b]
- Percentage inhibition of ligand binding, Adrenergic α2B ([1]; compound at 0.03 μM, 0.03 µM): 24%
- Percentage inhibition of ligand binding, Adrenergic α2A ([2]; compound at 0.1 μM, 0.1 µM): −5%
- Percentage inhibition of ligand binding, Adrenergic α1B ([3]; compound at 0.1 μM): 7%

SMILES: Cc1ccc2c(c1)c1c(n2CC(O)c2ccncc2)CN(C)CC1 (centres unmarked) [8a]
- Percentage inhibition of ligand binding, Adrenergic α2B (0.03 μM) ([1]; compound at 0.03 μM, 0.03 µM): 22%
- Percentage inhibition of ligand binding, Adrenergic α2A (0.1 μM) [2, 4]: 15%
- Percentage inhibition of ligand binding, Adrenergic α1B (0.1 μM) ([3]; compound at 0.1 μM, 0.1 µM): 39%

SMILES: Cc1ccc2c(c1)c1c(n2CC(C)(O)c2cccnc2)CN(C)CC1 (centres unmarked) [14b, 1-(2,6-dimethyl-1,2,3,4-tetrahydro-3-carbolin-9-yl)-2-pyridin-3-yl-propan-2-ol]
- Percentage inhibition of ligand binding, Adrenergic α2B (0.03 μM) ([1]; compound at 0.03 μM, 0.03 µM): 14%
- Percentage inhibition of ligand binding, Adrenergic α2A (0.1 μM) [2, 4]: −6%
- Percentage inhibition of ligand binding, Adrenergic α1B (0.1 μM) ([3]; compound at 0.1 μM, 0.1 µM): 25%

SMILES: Cc1ccc2c(c1)c1c(n2CC(C)(O)c2ccc(C)nc2)CCN(C)C1 (centres unmarked) [29b]
- Percentage inhibition of ligand binding, Adrenergic α2B (0.03 μM) ([1]; compound at 0.03 μM, 0.03 µM): 46%
- Percentage inhibition of ligand binding, Adrenergic α2A (0.1 μM) [2, 4]: 10%
- Percentage inhibition of ligand binding, Adrenergic α1B (0.1 μM) ([3]; compound at 0.1 μM, 0.1 µM): 14%

SMILES: CN1CCc2c(c3cc(Cl)ccc3n2CC(C)(O)c2cccnc2)C1 (centres unmarked) [31b]
- Percentage inhibition of ligand binding, Adrenergic α2B (0.03 μM) ([1]; compound at 0.03 μM, 0.03 µM): 36%
- Percentage inhibition of ligand binding, Adrenergic α2A (0.1 μM) [2, 4]: 14%
- Percentage inhibition of ligand binding, Adrenergic α1B (0.1 μM) ([3]; compound at 0.1 μM, 0.1 µM): 3%

SMILES: Cc1cnc2c(c1)c1c(n2CCc2ccc(C)nc2)CCN2CCCC12 (centres unmarked) [74b, 10-methyl-7-(2-(6-methylpyridin-3-yl)ethyl)-2,3,5,6,7,1c-hexahydro-1H-pyrido[3′,2′:4,5]pyrrolo[2,3-g]indolizine]
- Percentage inhibition of ligand binding, Adrenergic α2B (0.03 μM) ([1]; compound at 0.03 μM, 0.03 µM): 27%
- Percentage inhibition of ligand binding, Adrenergic α2A (0.1 μM) [2, 4]: 14%
- Percentage inhibition of ligand binding, Adrenergic α1B (0.1 μM) ([3]; compound at 0.1 μM, 0.1 µM): 28%

SMILES: Cc1ccc2c(c1)c1c(n2C(C)C(O)c2ccncc2)CCN(C)C1 (centres unmarked) [127b]
- Percentage inhibition of ligand binding, Adrenergic α2B ([1]; 0.03 μM compound, 0.03 µM): 1%
- Percentage inhibition of ligand binding, Adrenergic α2A ([2]; 0.1 μM compound): 4%
- Percentage inhibition of ligand binding, Adrenergic α1B ([3]; 0.1 μM compound): 13%

SMILES: Cc1ccc2c(c1)c1c(n2CC(N)c2ccncc2)CC2CCC1N2C (centres unmarked) [compound 155]
- inhibition at 0.03 µM ([1]; 0.03 μM compound, read-out: Percentage inhibition of ligand binding, Adrenergic α2B): 36%
- inhibition at 0.1 µM ([2]; 0.1 μM compound, read-out: Percentage inhibition of ligand binding, Adrenergic α2A): 14%
- inhibition at 0.1 µM ([3]; 0.1 μM compound, read-out: Percentage inhibition of ligand binding, Adrenergic α1B): 15%
